# Results as given in paper PMC4604124, “In Vitro Characterization of the Pharmacological Properties of the Anti-Cancer Chelator, Bp4eT, and Its Phase I Metabolites” (PLoS ONE, 2015).
# Values joined by “and” are separate entries in the source; they are usually repeats but may differ in a detail not shown here. Equal entries are not always repeated.
# Columns and labels:
# [1] = Viability (viabilita) used to normalise caspase activity; format: cell-based, human; conditions: human, MCF-7 cells, kontrola = 100;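 further: compound tested at 100 nM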
# Source text: Supplement pone.0139929.s002.zip/caspases activity.xlsx, sheet "results_viability"
# [2] = tested on: 3T3 mouse embryo fibroblasts; assay: MTT cytotoxicity assay, 3T3 cells; format: cell-based; conditions: for MTT, relative to control (0 = 100): 3T3, 10 000 b/j
# Method: (§1) For cytotoxicity experiments, cancer cells were seeded at a density of 5,000 (MCF-7), 10,000 (HL-60) or 2,000 cells/well (HCT116 and A549) in 96-well plates (TPP) for 24 h/37°C prior to the addition of examined agents. The non-cancerous cells, 3T3 and H9c2 cells, were cultured for 24 h/37°C in 96-well plates at a density of 10,000 cells/well, the medium was then changed to serum- and pyruvate-free DMEM (Sigma-Aldrich) and incubated with the cells for another 24 h/37°C. The cytotoxic effects of Bp4eT and its metabolites were studied at different concentrations after a 72 h/37°C incubation. In order to aid the dissolution of the lipophilic ligands, 0.1% dimethyl sulfoxide (v/v) (DMSO; Sigma-Aldrich) was present in the culture medium of all groups. At this concentration, DMSO had no effect on cellular proliferation or viability.
# (§2) The viability of cells were determined using an MTT assay (Sigma-Aldrich) according to previously established methods. The optical density of soluble MTT was measured at λ = 570 nm, subtracting the λ = 690 nm background using a Tecan Infinite 200M plate reader (Tecan Group, Männedorf, Switzerland). The viability or proliferation of experimental groups was expressed as a percentage of the untreated controls (100%).
# (§3) SigmaStat for Windows 3.5 (Systat Software, San Jose, CA, USA) statistical software package was utilized to analyze results. The data are expressed as the mean ± SD of a given number of experiments. Statistical significance was determined using a one-way ANOVA with a Bonferroni post-hoc test or Student’s t-test. The results were considered to be statistically significant when p < 0.05. The IC50 values were calculated using CalcuSyn 2.0 software (Biosoft, Cambridge, UK). Cell cycle analysis was evaluated using MultiCycle AV Software (Phoenix Flow Systems, San Diego, CA, USA).
# [3] = tested on: HCT116 human colorectal carcinoma cells; assay: MTT cytotoxicity assay, HCT116 cells; format: cell-based; conditions: for IC50: MTT
# Method: as §1, §2, §3
# [4] = tested on: labile iron pool of MCF-7 cells; assay: Calcein-AM assay, access to the labile iron pool; format: cell-based, human; design: Calcein fluorescence: unit not given here; conditions: 10 μM; for Calcein fluorescence: mean (průměr)
# Method: These experiments were performed according to Glickstein et al. with slight modifications. The MCF-7 cells were seeded in 96-well plates (10,000 cells/well) and allowed to adhere for 24 h/37°C. Cells were loaded with iron using the cellular iron donor, ferric ammonium citrate (530 μg/mL), 24 h prior to the experiment, and then washed. To prevent potential interference, especially with regard to various trace elements, the medium was replaced with ADS buffer (prepared using Millipore water supplemented with 116 mM NaCl, 5.3 mM KCl, 1 mM CaCl2, 1.2 mM MgSO4, 1.13 mM NaH2PO4, 5 mM D-glucose, and 20 mM HEPES, pH 7.4). Cells were then loaded with 2 μM of the cell-permeable calcein green acetoxymethyl ester (calcein-AM; Molecular Probes, Oregon, USA) for 30 min/37°C and washed. Cellular esterases cleave the acetoxymethyl groups to form the cell membrane-impermeable compound, calcein green. The fluorescence of calcein green is quenched upon binding iron. The intracellular fluorescence (λex = 488 nm; λem = 530 nm) of calcein green was then followed as a function of time (10 min after the addition of 10 μM Bp4eT or its metabolites) at 37°C using the Tecan Infinite 200M plate reader. The iron chelation efficacy of the metabolites in cells was expressed as a percentage of the efficacy of the parent chelator, Bp4eT (100%).
# [5] = tested on: A549 human lung adenocarcinoma cells; assay: MTT cytotoxicity assay, A549 cells; format: cell-based; conditions: for IC50: MTT
# Method: as §1, §2, §3
smiles,measurement,setting,value
"CCNC(=O)NN=C(c1ccccc1)c1ccccn1 [Z-Bp4eS, 2-benzoylpyridine 4-ethylsemicarbazone]","viability at 3 h, 100 nM",[1]; 3 hodiny,97.4%
same,"viability at 24 h, 100 nM",[1]; 24 hodin,99.5%
same,"viability at 72 h, 100 nM",[1]; 72 hodin,93.5%
same,IC50,"[2]; 3T3, 72 h/37°C, MTT, mean ± SD, n ≥ 4, read-out: IC50",> 1000 µM
same,"MTT, relative to control (0 = 100)","[2]; 1 μM, průměr (mean)",99.81
same,"MTT, relative to control (0 = 100)","[2]; 1 μM, single experiment (date)",90.4217 and 112.179 and 103.613 and 93.692 and 99.1404
same,"MTT, relative to control (0 = 100)","[2]; 3 μM, průměr (mean)",93.98
same,"MTT, relative to control (0 = 100)","[2]; 3 μM, single experiment (date)",89.9896 and 95.9618 and 102.444 and 92.291 and 89.1987
same,"MTT, relative to control (0 = 100)","[2]; 10 μM, průměr (mean)",93.85
same,"MTT, relative to control (0 = 100)","[2]; 10 μM, single experiment (date)",91.4468 and 99.0627 and 95.1304 and 94.2734 and 89.336
same,"MTT, relative to control (0 = 100)","[2]; 30 μM, průměr (mean)",90.21
same,"MTT, relative to control (0 = 100)","[2]; 30 μM, single experiment (date)",100.856 and 90.0957 and 87.8236 and 82.0687
same,"MTT, relative to control (0 = 100)","[2]; 100 μM, průměr (mean)",73.57
same,"MTT, relative to control (0 = 100)","[2]; 100 μM, single experiment (date)",81.8752 and 74.6133 and 74.3643 and 63.4281
same,"MTT, relative to control (0 = 100)","[2]; 300 μM, průměr (mean)",72.55
same,"MTT, relative to control (0 = 100)","[2]; 300 μM, single experiment (date)",79.104 and 69.1035 and 70.1959 and 71.7888
same,"MTT, relative to control (0 = 100)","[2]; 1000 μM, průměr (mean)",63.36
same,"MTT, relative to control (0 = 100)","[2]; 1000 μM, single experiment (date)",73.2159 and 60.5042 and 61.05 and 58.6559
same,"Therapeutic index, IC50 non-cancerous cells / IC50 neoplastic cells",[3]; 3T3/HCT116,>3.0
same,"Therapeutic index, IC50 non-cancerous cells / IC50 neoplastic cells",[3]; H9c2/HCT116,1.0
same,IC50,"[3]; HCT116, 72 h/37°C, mean ± SD, n ≥ 4",337 ± 48.5 µM
same,"MTT, relative to control (0 = 100)","[3]; HCT116, 2 000 b/j, 1 μM, průměr (mean), sheet Z-Bp4eS",98.02
same,"MTT, relative to control (0 = 100)","[3]; HCT116, 2 000 b/j, 1 μM, single experiment (date), sheet Z-Bp4eS",92.9248 and 94.2078 and 101.373 and 103.589
same,"MTT, relative to control (0 = 100)","[3]; HCT116, 2 000 b/j, 3 μM, průměr (mean), sheet Z-Bp4eS",95.04
same,"MTT, relative to control (0 = 100)","[3]; HCT116, 2 000 b/j, 3 μM, single experiment (date), sheet Z-Bp4eS",90.3505 and 96.7506 and 97.8429 and 95.2259
same,"MTT, relative to control (0 = 100)","[3]; HCT116, 2 000 b/j, 10 μM, průměr (mean), sheet Z-Bp4eS",92.27
same,"MTT, relative to control (0 = 100)","[3]; HCT116, 2 000 b/j, 10 μM, single experiment (date), sheet Z-Bp4eS",90.1105 and 89.2672 and 98.2602 and 91.4504
same,"MTT, relative to control (0 = 100)","[3]; HCT116, 2 000 b/j, 30 μM, průměr (mean), sheet Z-Bp4eS",89.97
same,"MTT, relative to control (0 = 100)","[3]; HCT116, 2 000 b/j, 30 μM, single experiment (date), sheet Z-Bp4eS",84.3315 and 84.8984 and 97.3042 and 93.3561
same,"MTT, relative to control (0 = 100)","[3]; HCT116, 2 000 b/j, 100 μM, průměr (mean), sheet Z-Bp4eS",81.81
same,"MTT, relative to control (0 = 100)","[3]; HCT116, 2 000 b/j, 100 μM, single experiment (date), sheet Z-Bp4eS",79.36 and 76.1483 and 84.5307 and 87.1986
same,"MTT, relative to control (0 = 100)","[3]; HCT116, 2 000 b/j, 300 μM, průměr (mean), sheet Z-Bp4eS",62.81
same,"MTT, relative to control (0 = 100)","[3]; HCT116, 2 000 b/j, 300 μM, single experiment (date), sheet Z-Bp4eS",53.0737 and 67.0105 and 63.0816 and 68.093
same,"MTT, relative to control (0 = 100)","[3]; HCT116, 2 000 b/j, 1000 μM, průměr (mean), sheet Z-Bp4eS",14.99
same,"MTT, relative to control (0 = 100)","[3]; HCT116, 2 000 b/j, 1000 μM, single experiment (date), sheet Z-Bp4eS",11.223 and 18.8694 and 13.6196 and 16.2655
same,IC50,"[3]; HCT116, 2 000 b/j, single experiment (date), sheet Z-Bp4eS",350 µM and 338 µM and 388 µM
same,IC50,"[3]; Homo sapiens, HCT-116, HCT116, 2 000 b/j, průměr (mean), sheet Z-Bp4eS",337 µM
same,IC50,"[3]; Homo sapiens, HCT-116, HCT116, 2 000 b/j, single experiment (date), sheet Z-Bp4eS",272 µM
same,Calcein fluorescence,[4]; 30 sec,11.525
same,Calcein fluorescence,[4]; 60 sec,8.244
same,Calcein fluorescence,[4]; 90 sec,15.042
same,Calcein fluorescence,[4]; 120 sec,10.528
same,Calcein fluorescence,[4]; 300 sec,1.225
same,Calcein fluorescence,[4]; 600 sec,2.196
same,Chelation efficacy: fluorescence of free calcein at t = 600 s as percentage of Bp4eT,"[4]; MCF-7, mean of 6 experiments",0.9956%
same,Fluorescence of free calcein at 600 s as percentage of Bp4eT,"[4]; MCF-7, single experiments",0% and 5.974%
same,"Therapeutic index, IC50 non-cancerous cells / IC50 neoplastic cells",[5]; 3T3/A549,>1.9
same,IC50,"[5]; A549, 72 h/37°C, mean ± SD, n ≥ 4",536 ± 147 µM
same,"MTT, relative to control (0 = 100)","[5]; A549, 2 000 b/j, 1 μM, průměr (mean), sheet Z-Bp4eS",94.73
same,"MTT, relative to control (0 = 100)","[5]; A549, 2 000 b/j, 1 μM, single experiment (date), sheet Z-Bp4eS",96.1035 and 96.1124 and 90.1392 and 98.3089 and 94.9198 and 92.7894
same,"MTT, relative to control (0 = 100)","[5]; A549, 2 000 b/j, 3 μM, průměr (mean), sheet Z-Bp4eS",94.38
same,"MTT, relative to control (0 = 100)","[5]; A549, 2 000 b/j, 3 μM, single experiment (date), sheet Z-Bp4eS",93.9771 and 96.8848 and 87.0494 and 97.8403 and 95.4397 and 95.0776
same,"MTT, relative to control (0 = 100)","[5]; A549, 2 000 b/j, 10 μM, průměr (mean), sheet Z-Bp4eS",94.55
same,"MTT, relative to control (0 = 100)","[5]; A549, 2 000 b/j, 10 μM, single experiment (date), sheet Z-Bp4eS",94.0202 and 95.9602 and 87.4767 and 100.017 and 95.1483 and 94.6861
same,"MTT, relative to control (0 = 100)","[5]; A549, 2 000 b/j, 30 μM, průměr (mean), sheet Z-Bp4eS",91.68
same,"MTT, relative to control (0 = 100)","[5]; A549, 2 000 b/j, 30 μM, single experiment (date), sheet Z-Bp4eS",90.8876 and 93.251 and 83.1786 and 91.8017 and 95.6624 and 95.2834
same,"MTT, relative to control (0 = 100)","[5]; A549, 2 000 b/j, 100 μM, průměr (mean), sheet Z-Bp4eS",84.34
same,"MTT, relative to control (0 = 100)","[5]; A549, 2 000 b/j, 100 μM, single experiment (date), sheet Z-Bp4eS",76.9185 and 86.3352 and 79.6865 and 86.589 and 88.5447 and 87.9645
same,"MTT, relative to control (0 = 100)","[5]; A549, 2 000 b/j, 300 μM, průměr (mean), sheet Z-Bp4eS",74.88
same,"MTT, relative to control (0 = 100)","[5]; A549, 2 000 b/j, 300 μM, single experiment (date), sheet Z-Bp4eS",67.4475 and 78.3776 and 76.2041 and 77.4903
same,"MTT, relative to control (0 = 100)","[5]; A549, 2 000 b/j, 1000 μM, průměr (mean), sheet Z-Bp4eS",26.69
same,"MTT, relative to control (0 = 100)","[5]; A549, 2 000 b/j, 1000 μM, single experiment (date), sheet Z-Bp4eS",18.2318 and 35.0023 and 34.1521 and 19.3887
same,IC50,"[5]; A549, 2 000 b/j, single experiment (date), sheet Z-Bp4eS",676 µM and 639 µM and 464 µM
same,"Therapeutic index, IC50 non-cancerous cells / IC50 neoplastic cells",[5]; H9c2/A549,0.6
same,IC50,"[5]; Homo sapiens, A549, A549, 2 000 b/j, průměr (mean), sheet Z-Bp4eS",536 µM
same,IC50,"[5]; Homo sapiens, A549, A549, 2 000 b/j, single experiment (date), sheet Z-Bp4eS",364 µM
